Structures are written as SMILES.

For series [1], the system named is HMLER cells. Nature of the series: Drug effect on 2D proliferation of HMLER cells. The series is classed as cell-based, human. The conditions noted are these: only when the drugs were present. Here is the method:
(§1) BPLER and HMLER cells were maintained in WIT-T (Stemgent) and MGEM (Lonza) medium at 37° C. and 5% CO2. The remaining cell lines were grown in DMEM/F12 (Gibco) with 10% fetal bovine serum (FBS) at 37° C. and 5% CO2. The BPLER cells were grown on Primaria plasticware (BD Biosciences). The remaining cells were grown on standard plasticware (Falcon). The mammospheres were maintained in a 1:1 ratio of WIT-T/MEGM (less bovine pituitary extract) using 2% B27 (Invitrogen), 20 ng/ml EGF, 20 ng/ml bFGF (BD Biosciences), 4 ug/ml heparin (Sigma), and 0.5% methyl cellulose. Sphere formation experiments were carried out by plating 15,000-20,000 cells/well into 6-well ultra-low attachment plates (Corning). The cells were fed at days 1, 3, and 5, and spheres were counted at day 7.
(§2) Drug treatment experiments were performed in a 1:1 ratio of WIT-T/MEGM media. […] To evaluate the drug effect on 2D proliferation of BPLER and HMLER cells, the cells were plated at 125,000 cells/well in 6-well Primaria plates. Drug-containing media was added to each well after 24 hours. The cells were treated continuously for 4 days with drug-containing media changes each day. Cell number was counted with a hemocytometer after 4 days of treatment. To evaluate the drug effect on BPLER and HMLER cell mammosphere formation, cells were plated at 50% confluence in Primaria flasks. […]

Series [2] concerns HMLER cells. Nature of the series: Mammosphere (tumorsphere) formation of HMLER cells after short-term drug treatment. The following applies: 24 hours treatment, 24 hours recovery, 7 days drug-free sphere culture. The class given is cell-based, human. Here is the method:
(§3) Nor was any difference observed between BPLER and HMLER cells with paclitaxel or 5-fluorouracil (FIG. 3B). As noted above, tumorsphere formation capacity correlates with TSC subpopulations. With the tumorsphere assay employed, a single tumor cell can form a multicellular tumorsphere in suspension. To assess the short term effect of drug treatment, drugs were removed after treating the tumor cells in routine 2D culture conditions for 24 hours, and after a recovery period of 24 hours tumorsphere cultures were suspended in a medium free of drugs for 7 days.
as §1
as §2, with “flasks. After 24 hours, drug-containing media was added to each flask. After 24 hours of treatment with the drug-containing media, the cells recovered for 24 hours in a drug-free media.” for “flasks.”

Series [3] deals with BPLER cells. The class given is cell-based, human. The following applies: only when the drugs were present. Here is the method: as §1, §2
For series [4], the system named is BPLER cells. Nature of the series: Mammosphere (tumorsphere) formation of BPLER cells after short-term drug treatment. The class given is cell-based, human. The following applies: for BPLER cell capacity to form mammospheres (tumorsphere formation): 24 hours treatment, 24 hours recovery, 7 days drug-free sphere culture; for difference in response between BPLER and HMLER cells: BPLER vs HMLER. Here is the method: as §3, §1
Drug treatment experiments were performed in a 1:1 ratio of WIT-T/MEGM media. […] To evaluate the drug effect on 2D proliferation of BPLER and HMLER cells, the cells were plated at 125,000 cells/well in 6-well Primaria plates. Drug-containing media was added to each well after 24 hours. The cells were treated continuously for 4 days with drug-containing media changes each day. Cell number was counted with a hemocytometer after 4 days of treatment. To evaluate the drug effect on BPLER and HMLER cell mammosphere formation, cells were plated at 50% confluence in Primaria flasks. After 24 hours, drug-containing media was added to each flask. After 24 hours of treatment with the drug-containing media, the cells recovered for 24 hours in a drug-free media. Cells were then plated for the mammosphere protocol as described previously.

Series [5] deals with other Class I and Class II HDACs. The conditions noted are these: TSA treatment of breast tumor cells; cited from earlier work.

Turning to `O=c1[nH]cc(F)c(=O)[nH]1` [5-fluorouracil], the “cytotoxic effect on HMLER cells” value with HMLER cells [1] was “cytotoxic effect”. In addition, the “HMLER cell capacity to form mammospheres (tumorsphere formation)” value (shortened to “HMLER cell capacity to form mammospheres”) in the series on HMLER cells [2] is listed as “not inhibited”. Besides, the “cytotoxic effect on BPLER cells” value with BPLER cells [3] is “cytotoxic effect”. Besides, in the series with BPLER cells [4], the “BPLER cell capacity to form mammospheres (tumorsphere formation)” value (from here on “BPLER cell capacity to form mammospheres”) was “not inhibited”; the “difference in response between BPLER and HMLER cells” value is given as “no difference”.

As to `CC(/C=C/C(=O)NO)=C\[C@@H](C)C(=O)c1ccc(N(C)C)cc1` [TSA, trichostatin A], the “HMLER cell capacity to form mammospheres” value with HMLER cells [2] is given as “did not affect”. Further, in series [5], the “changes in expression of other Class I and Class II HDACs” value is listed as “less than 2 fold”. Also, in the series on BPLER cells [4], the “BPLER cell capacity to form mammospheres” value was “significantly decreased”.

For `CC(=O)O[C@H]1C(=O)[C@@]2(C)[C@H]([C@H](OC(=O)c3ccccc3)[C@]3(O)C[C@H](OC(=O)[C@H](O)[C@@H](NC(=O)c4ccccc4)c4ccccc4)C(C)=C1C3(C)C)[C@]1(OC(C)=O)CO[C@@H]1C[C@@H]2O` [paclitaxel], in the series with HMLER cells [1], the “cytotoxic effect on HMLER cells” value is on record as “cytotoxic effect”. Besides, the “HMLER cell capacity to form mammospheres” value in the series with HMLER cells [2] is reported as “not inhibited”. For the same compound, the “cytotoxic effect on BPLER cells” value with BPLER cells [3] is on record as “cytotoxic effect”. In addition, in the series on BPLER cells [4], the “BPLER cell capacity to form mammospheres” value is listed as “not inhibited”; the “difference in response between BPLER and HMLER cells” value is reported as “no difference”.

(Values after patent publication US8912156B1, “Markers for and methods of targeting tumor stem cells” (Whitehead Institute for Biomedical Research, priority 2011, dated 2014).)
